From patent publication US20260224609A1, “TREATMENT OF GUT INFLAMMATORY DISEASES” (priority 2023, published 2026)

Columns and labels:
ileo-cecal lesions = experiment: IBD model: ileo-cecal resection in transgenic HLA-B27 rats; assay type: in vivo; details: 6 weeks after resection; treatment from week 8
Description: Transgenic HLA-B27 rats have been selected by the inventors as a model for ileo-cecal lesions in Humans (for instance common in Crohn's disease).
Twelve weeks-old rats (40, in five pools) are treated for the resection of distal ileum with proximal colon and the inflammation level was evaluated 6 weeks thereafter.

[1] = system: 2,4,6-trinitrobenzene sulfonic acid (TNBS)-induced colitis; experiment: TNBS-induced colitis in rats; assay type: in vivo, rats (Sprague Dauwley)
Description: The inventors have developed a model based on 2,4,6-trinitrobenzene sulfonic acid (TNBS)-induced colitis in rats (Sprague Dauwley); 80 mg/kg. Colorectal distension is measured 14 days prior to the TNBS induction, as well as 21, 35 and 49 days after the TNBS induction.
The bacteria B. breve and La have been formulated in sticks for ingestion; the stability having been validated.

Candida albicans = experiment: Candida albicans-induced colitis model; assay type: in vivo, Balb/C female mice; details: after 9 days; 150 mg/kg, curative
Description: The inventors have selected a group of Balb/C female mice under estradiol (2.5 mg/kg; 1 injection every 3 days, for 12 days) to develop a Candida albicans-induced colitis model.
The prevention treatment started during estradiol administration, whereas the curative treatments started 2 days after Candida inoculation. The mice were sacrificed 14 days after the inoculation.

HT-29 = experiment: Toxicity test CCK-8 on HT-29 cells under LPS; details: inflammatory conditions, LPS 10 ng/ml
Description: (§1) A cellular model with HT-29 and Caco-2 cells has been established.

Caco-2 cells = experiment: Toxicity test CCK-8 on Caco-2 cells; details: inflammatory conditions, LPS 1 mg/ml
Description: as §1

In the case of Nc1ccc(O)c(C(=O)O)c1 [pentasa], the post-operative relapses (ileo-cecal lesions) is reported as “markedly reduced”.
In the case of Oc1cc(O)cc(O)c1 [Spasfon, Phloroglucinol], the “macroscopic evaluation (Wallace scoring)” value ([1]; TNBS condition: 2.25) is reported as 1.56, the “histological analysis of the inflammation (Ameho)” value ([1]; TNBS+vehicle: 2.00) is reported as 1.56 and the pain threshold ([1]; also with Vitamin D) is reported as “did not increase the pain threshold”.
With OC(Cn1cncn1)(Cn1cncn1)c1ccc(F)cc1F [Fluconazole] the mice remaining infected (Candida albicans) was “no mice remaining infected”.
In the case of C=C1CC[C@H](O)C/C1=C/C=C1\CCC[C@]2(C)[C@@H]([C@H](C)CCCC(C)C)CC[C@@H]12 [Vitamin D, cholecalciferol (Vitamin D3)], the “toxicity (CCK-8)” value (HT-29) is reported as “no toxicity” and the “toxicity (CCK-8)” value (Caco-2 cells) is reported as “no toxicity”.
